For this assay, the system named is PD-L1 expression in 4T1 cells. Description: Immunoblot analysis of PD-L1 expression. In kind it is cell-based, mouse. To be noted: 4T1 cells cultured 48 h after exposure at 42 ℃ for 10 min. The protocol: fluctuations were continuously recorded using an infrared thermal imaging camera (FLIR E50, USA).
Cell lysis and immunoblotting
Cells were washed with PBS and lysed using RIPA buffer supplemented with protease inhibitors. The lysates were subjected to SDS-PAGE (12% or 10% Bis-Tris gel) and subsequently transferred onto a nitrocellulose membrane. The membrane was blocked with TBS-T containing 5% non-fat dry milk, followed by overnight incubation with the primary antibody at 4 °C. After triplicate washing with TBS-T, the membrane was incubated with the HRP-conjugated secondary antibody for 1 h at room temperature and developed using ECL detection reagents.
The TRIzol reagent was used for RNA extraction according to the manufacturer's instructions. Total RNA was reverse -transcribed into cDNA using an iScript cDNA synthesis kit. Quantitative analysis of the target genes was performed using the Universal SYBR Green Supermix qPCR kit. GAPDH was used as the reference gene for relative quantification normalization, with details of the primer sequences provided in Supplementary Table 1. […]
The lysis buffer was then neutralized by adding an equal volume of RPMI 1640 medium, followed by centrifugation at 500 × g for 3 min. […] After incubation, the cells were washed with PBS to remove T cells and debris, followed by crystal violet staining to quantify the live cancer cells. […]
(In general: In western blotting, separated proteins are transferred to a membrane and probed.)

Experimental findings from publication PMC12591182, “PD‐L1‐Targeting Biomimetic Photoresponsive Thermosensitive Liposomes for Triple‐Negative Breast Cancer” (Advanced Science, 2025) are described below.

“GFTATPPPDSPQEP/PEIF [PTPRF, fluorinated PTPR: PTPR combined with fluorinated polyethyleneimine PEIF]”: the “concentration that effectively inhibited PD-L1 expression” value was 10 µM.
